Blank lines part the entries; values can stand above or below the compound they belong to. Numbered stars: 1 amine (or outer) side, 2 acyl side, 3 side chain; on linkers, the order of the positions; unused ones are H or OH. Bridge positions count the residues as written; N and C are the ends. Peptide text beside a SMILES is read from it. * marks the point of attachment. Biotin = O=C1N[C@H]2[C@H](CS[C@H]2CCCCC(=O)*)N1; C6F4(1,4-diyl) = Fc1c(F)c([*:2])c(F)c(F)c1[*:1]; PEG4 = NCCOCCOCCOCCOCCC(=O)O
Assays:
SUMO-25-109MDM2 [1] = biological target: T1, SUMO-25-109MDM2 (Homo sapiens, UniProt Q00987); assay: Direct BLI binding assay of immobilised biotinylated peptides; details: biotin-PEG4-peptide on streptavidin sensor, SUMO-25-109MDM2 4-500 nM, global 1:1 fit
T1 construct: the ^25-109MDM2 gene was purchased from Addgene; made in house; host or cells: E. coli Rosetta (DE3) pLysS
Protocol: 6. Supplementary Methods 4: Binding validation by bio-layer interferometry 6.1 Methods for BLI assay
In vitro binding assay was performed using ForteBio Octet RED96 BLI system (Octet RED96). In a typical experiment, the streptavidin (SA) tips were dipped in 200 µL biotinylated- peptide solution (2.0 μM in PBS with 0.02% Tween 20 and 1 mg/mL BSA) for the loading step. The loaded tips were then dipped in the sample wells for association curves. Buffer-only condition were used as reference for background subtraction. After association, the tips were dipped in blocking buffer (1x PBS, 0.02% Tween 20, 1 mg/mL BSA) to obtain dissociation curve. The association and dissociation curves were fitted by the global fitting algorithm, under binding model 1:1 to obtain the binding response value (R) in nm.
Streptavidin sensors were soaked in blocking buffer for 5 min. After immobilizing the PEG4-biotinylated peptide (100 nM of Biotin-PEG4-peptide) onto streptavidin sensors, serial dilutions of SUMO-25-109MDM2 in blocking buffer were analyzed for binding (500 nM, 250 nM, 125 nM, 63nM, 32 nM, 16 nM, 8 nM and 4 nM. The response was recorded at equilibrium after 2 min.

SUMO-25-109MDM2 [2] = biological target: T1, SUMO-25-109MDM2; assay: In-solution competition assay by biolayer interferometry (BLI); assay type: binding; details: supplementary binding validation; averaged over three measurements; ~30-100 nM SUMO-25-109MDM2 as given per peptide; read-out: Averaged KD, competition BLI assay
Serum stability assay = assay type: in vitro ADME; details: 10 µM peptide, 25% human serum in 1x PBS (v/v); 0 min-24 h; TCA precipitation; LC-MS EIC peak area; first-order fit; three experiments; read-out: Half-life (t1/2) in serum
Protocol: To assess the stability of stapled peptides, we performed a serum stability assay (Supplementary Fig. 6)[31],[36],[37]. Three stapled peptides were selected for assessment. […]
10 µM peptide were incubated with 25% human serum in buffer 1x PBS (v/v). At each time point (0 min, 5 min, 10 min, 30 min, 1 h, 2 h, 4 h, 8 h, 12h and 24 h), the mixture was sampled, treated with 10% trichloroacetic acid, and centrifuged at 12,000 g to remove serum proteins. The supernatant was acidified with 0.2% formic acid in water (v/v) and subjected to LC-MS analysis. The percentage of peptides (Y-axis) was calculated as the ratio of peak area in extracted ion chromatogram (EIC). Three experiments were carried out. The serum digestion curve was plotted using Prism8 software. The half-life of each peptide was calculated by fitted the digestion curve with the first order kinetic equation: ሾXሿ௧ ൌ ሾXሿ଴ ൈeି௞௧ , ሾXሿ is the remaining peptide percentage, t is the time in min. Half-life was calculated as tଵ/ଶ ൌሺln 2ሻ/k .

antibody 12ca5 = details: stated for the epitope without method; ref not given; cited from earlier work
Description: The epitope used for 12ca5 has the sequence […]; the previously characterized protein 14-3-3σ binder 14-3-3.6 was used for 14-3-3σ and its sequence can be found in Fig. 6b. A beta-alanine spacer was used between the library construct and the C-terminal lysine.

14-3-3σ = details: previously characterized binder; cited from earlier work
Description: The epitope used for 12ca5 has the sequence […]; the previously characterized protein 14-3-3σ binder 14-3-3.6 was used for 14-3-3σ and its sequence can be found in Fig. 6b. A beta-alanine spacer was used between the library construct and the C-terminal lysine. […]

koff (SUMO-25-109MDM2 [1]): 0.00981 s⁻¹ | kon (SUMO-25-109MDM2 [1]): 633000 M⁻¹ s⁻¹
Compound: CC(C)C[C@H](NC(=O)[C@H](C)NC(=O)[C@H](C)NC(=O)[C@H](Cc1c[nH]c2ccccc12)NC(=O)[C@H](Cc1ccc(O)cc1)NC(=O)[C@H](C)NC(=O)[C@H](C)NC(=O)[C@H](Cc1ccccc1)NC(=O)[C@H](C)NC(=O)[C@@H](NC(=O)CCOCCOCCOCCOCCNC(=O)CCCC[C@@H]1SC[C@@H]2NC(=O)N[C@@H]21)[C@@H](C)O)C(=O)N[C@@H](C)C(=O)N[C@@H](C)C(=O)N[C@@H](CCCCN)C(N)=O [Peptide 32-biotin] ({Biotin-PEG4}-TAFAAYWAALAAK-NH2)

koff (SUMO-25-109MDM2 [1]): 0.0107 s⁻¹ | kon (SUMO-25-109MDM2 [1]): 170000 M⁻¹ s⁻¹
Compound: CC(C)C[C@H](NC(=O)[C@H](C)NC(=O)[C@H](C)NC(=O)[C@H](Cc1c[nH]c2ccccc12)NC(=O)[C@H](Cc1ccc(O)cc1)NC(=O)[C@H](C)NC(=O)[C@H](C)NC(=O)[C@H](Cc1ccccc1)NC(=O)[C@H](CO)NC(=O)[C@H](C)NC(=O)CCOCCOCCOCCOCCNC(=O)CCCC[C@@H]1SC[C@@H]2NC(=O)N[C@@H]21)C(=O)N[C@@H](C)C(=O)N[C@@H](C)C(=O)N[C@@H](CCCCN)C(N)=O [Peptide 33-biotin] ({Biotin-PEG4}-ASFAAYWAALAAK-NH2)

Kd (SUMO-25-109MDM2 [2]): 0.4 ± 0.3 nM | half-life at 10 µM (Serum stability assay): 27 min
Compound: CC(C)C[C@H](NC(=O)[C@@H]1CSc2c(F)c(F)c(c(F)c2F)SC[C@H](NC(=O)[C@H](C)NC(=O)[C@H](Cc2ccccc2)NC(=O)[C@H](CO)NC(=O)[C@H](C)N)C(=O)N[C@@H](Cc2ccc(O)cc2)C(=O)N[C@@H](Cc2c[nH]c3ccccc23)C(=O)N[C@@H](C)C(=O)N1)C(=O)N[C@@H](CO)C(=O)N[C@@H](C)C(N)=O [Peptide 38] (H-ASFACYWACLSA-NH2; linker 5-9 via C6F4(1,4-diyl))

Kd (SUMO-25-109MDM2 [2]): 3.3 ± 2.1 nM | half-life at 10 µM (Serum stability assay): 25 min
Compound: CC(C)C[C@@H]1NC(=O)[C@H](C)NC(=O)[C@@H](NC(=O)[C@H](Cc2c[nH]c3ccccc23)NC(=O)[C@H](Cc2ccc(O)cc2)NC(=O)[C@H](CCC(=O)O)NC(=O)[C@H](C)NC(=O)[C@H](Cc2ccccc2)NC(=O)[C@H](CO)NC(=O)[C@H](C)N)CSc2c(F)c(F)c(c(F)c2F)SC[C@@H](C(N)=O)NC(=O)[C@H](C)NC1=O [Peptide 39] (H-ASFAEYWCALAC-NH2; linker 8-12 via C6F4(1,4-diyl))

Compound: YPYDVPDYA
Kd (antibody 12ca5): 4 nM

Compound: CC(C)C[C@H](NC(=O)[C@H](CC(N)=O)NC(=O)[C@H](Cc1c[nH]c2ccccc12)NC(=O)[C@H](Cc1ccc(O)cc1)NC(=O)[C@H](CCC(=O)O)NC(=O)[C@H](C)NC(=O)[C@H](Cc1ccccc1)NC(=O)[C@H](CO)NC(=O)[C@@H](N)[C@@H](C)O)C(=O)N[C@@H](CC(C)C)C(=O)N[C@@H](CO)C(=O)N1CCC[C@H]1C(N)=O [PMI, reference compound] (H-TSFAEYWNLLSP-NH2)
half-life at 10 µM (Serum stability assay): 2.2 min

half-life at 10 µM (Serum stability assay): 3.9 min
Compound: CC(C)C[C@H](NC(=O)[C@H](C)NC(=O)[C@H](C)NC(=O)[C@H](Cc1c[nH]c2ccccc12)NC(=O)[C@H](Cc1ccc(O)cc1)NC(=O)[C@H](C)NC(=O)[C@H](C)NC(=O)[C@H](Cc1ccccc1)NC(=O)[C@H](C)NC(=O)[C@@H](N)[C@@H](C)O)C(=O)N[C@@H](C)C(=O)N[C@@H](C)C(=O)N[C@@H](CCCCN)C(N)=O [Peptide 32] (H-TAFAAYWAALAAK-NH2)

half-life at 10 µM (Serum stability assay): 5.1 min
Compound: CC(C)C[C@H](NC(=O)[C@H](C)NC(=O)[C@H](C)NC(=O)[C@H](Cc1c[nH]c2ccccc12)NC(=O)[C@H](Cc1ccc(O)cc1)NC(=O)[C@H](C)NC(=O)[C@H](C)NC(=O)[C@H](Cc1ccccc1)NC(=O)[C@H](C)NC(=O)[C@H](C)N)C(=O)N[C@@H](C)C(=O)N[C@@H](C)C(=O)N[C@@H](CCCCN)C(N)=O [Peptide 34] (H-AAFAAYWAALAAK-NH2)

koff (SUMO-25-109MDM2 [1]): 0.0102 s⁻¹ | kon (SUMO-25-109MDM2 [1]): 824000 M⁻¹ s⁻¹
Compound: CC(C)C[C@H](NC(=O)[C@H](C)NC(=O)[C@H](C)NC(=O)[C@H](Cc1c[nH]c2ccccc12)NC(=O)[C@H](Cc1ccc(O)cc1)NC(=O)[C@H](C)NC(=O)[C@H](C)NC(=O)[C@H](Cc1ccccc1)NC(=O)[C@H](C)NC(=O)[C@H](C)NC(=O)CCOCCOCCOCCOCCNC(=O)CCCC[C@@H]1SC[C@@H]2NC(=O)N[C@@H]21)C(=O)N[C@@H](C)C(=O)N[C@@H](C)C(=O)N[C@@H](CCCCN)C(N)=O [Peptide 34-biotin] ({Biotin-PEG4}-AAFAAYWAALAAK-NH2)

Kd (SUMO-25-109MDM2 [2]): 4.4 ± 1.9 nM | half-life at 10 µM (Serum stability assay): 26 min
Compound: CC(C)C[C@H](NC(=O)[C@H](C)NC(=O)[C@@H]1CSc2c(F)c(F)c(c(F)c2F)SC[C@H](NC(=O)[C@H](Cc2ccccc2)NC(=O)[C@H](CO)NC(=O)[C@H](C)N)C(=O)N[C@@H](CCC(=O)O)C(=O)N[C@@H](Cc2ccc(O)cc2)C(=O)N[C@@H](Cc2c[nH]c3ccccc23)C(=O)N1)C(=O)N[C@@H](C)C(=O)N[C@@H](C)C(N)=O [Peptide 36] (H-ASFCEYWCALAA-NH2; linker 4-8 via C6F4(1,4-diyl))

Compound: Cha-Cha-β-Ser-Orn-pSer-Nph-β-Ser-β-Ser-Nph [Peptide 14-3-3.6]
Kd (14-3-3σ): 3 nM
